Assay results taken from patent US20230028658A1, “EXPANDED DOSAGE REGIMENS FOR INTEGRIN INHIBITORS” (Pliant Therapeutics, Inc., priority 2021, published 2023).
Like-named read-outs stand apart in the source and are kept apart here.

What was measured:
[1] = Single dose pharmacokinetics (SAD), Example B14; type: in vivo, human; conditions: for half-life / Cmax / AUC(0-t) / Tmax: human, oral; for half-life: plasma total drug; for half-life / Cmax / AUC(0-t): geometric mean; for Cmax / AUC(0-t) / Tmax: plasma; for AUC(0-t): read-out: AUC0-24, ng × h/mL; for Tmax: median
Text: Accordingly, a study was designed to assess the PK of Compound 5 after a single dose and following a 6-day course of doses, at levels exceeding the dosages used in preceding Examples B12 and B13. This study was designed to assess at these higher doses aspects of the single-dose and steady-state pharmacokinetics of Compound 5.
(§1) This study was a single-center, randomized, double-blind, ascending dose, placebo-controlled study in healthy participants. Each cohort included 10 participants (8 active, 2 placebo). Study participants received single ascending doses (SAD) of Compound 5 of 120, 160, 240, 320, 480, and 640 mg and multiple ascending doses (MAD) of Compound 5 of 80, 120, 160, 240, and 320 mg. Two cohorts of participants at 160 mg were studied in the MAD phase of the study.
Participants received single Compound 5 doses of 120, 160, 240, 320, 480, and 640 mg. A total of 60 participants were enrolled across the dosing groups, with 48 participants who received Compound 5 available for PK analyses. Despite the substantially higher dosages, PK parameters in the dosing groups were consistent with those observed at lower doses in Example B12.

bleomycin-treated mice = test: Murine bleomycin model; type: in vivo, Mice (C57BL/6)
Text: It has been previously shown that inhibition of αvβ6 in the lung can be detected though measurement of phospho-SMAD (pSMAD) in alveolar macrophages. Alveolar macrophages are known to operate in a unique niche in the lung, distinct from interstitial macrophages. SMAD3 is a downstream target of the active TGF-β cytokine binding its receptor and in alveolar macrophages it is phosphorylated by homoeostatic levels of TGF-β. Accordingly, it was desirable to know whether inhibition of TGF-β activation using the disclosed compounds would result in reduced SMAD2 and SMAD3 phosphorylation.
Mice (C57BL/6) were divided into healthy (n=15), vehicle-treated (n=15), and test article-treated (n=15 per dose) groups. Mice in the vehicle and test article-treated groups were administered 3 U/kg of bleomycin (Teva Pharmaceuticals; North Wales, Pa.) via oropharyngeal aspiration while under anesthesia on day 0. Healthy animals were administered water in a similar fashion. Starting on day 7, mice in the control group were administered PBS vehicle, 130 μL, by oral gavage, BID for 14 days. Also starting on day 7, mice in the test group were administered compound 5 in PBS by oral gavage, BID for 14 days, at relative dosages of 1×, 2.5× and 5×. […] From day 14 through day 21, 9 of the 15 mice were administered ^2H2O for labeling. All mice were sacrificed on day 21 and tissues were collected. Samples were prepared for analysis either directly from lung tissue, or by bronchoalveolar lavage, which washes out the bronchiolar and alveolar space with saline to produce a bronchoalveolar lavage fluid (BALF) in which 80-90% of cells are alveolar macrophages.

lung Col1a1 expression = test: Precision cut lung slices, chronic bleomycin, comparison with nintedanib and pirfenidone (Example B10); type: cell-based, Mice (C57BL/6); conditions: chronic bleomycin PCLS, 7 days culture, vs DMSO vehicle; FIG. 6A
Experimental: Mice (C57BL/6) were administered 3 U/kg of bleomycin (Teva Pharmaceuticals; North Wales, Pa.) on Day 0 and 1 U/kg of bleomycin on days 14, 28, 42 and 56 via oropharyngeal aspiration while under anesthesia. At day 70, 14 days following the final bleomycin insult, precision cut lung slices were obtained. Following euthanization, 2% low gelling temp agarose was injected into the mouse lungs via the trachea. […] The lobes were then subjected to precision slicing to obtain samples for culture using a microtome (Compresstome VF-300-0Z, Precisionary; Greenville, N.C.). Individual slices were distributed in a multiwell culture plate and cultured for 7 days under control (DMSO) and test compound conditions. The viability of the slices over the course of culturing was confirmed by WST-1 assay of mitochondrial activity.
During the culture period, slices in the control group were treated with DMSO and slices in the test group were treated with a DMSO solution of one of: compound 5; nintedanib; pirfenidone; a combination of nintedanib and compound 5; a combination of pirfenidone and compound 5; or the small molecule ALK5 inhibitor. Compound 5 was […] effective to equal or exceed its respective IC50 values at αvβ6 and αvβ1. […] Nintendanib and pirfenidone were analyzed at concentrations 10× their reported therapeutic concentrations.

[2] = Safety at the higher doses of Examples B14 and B15; type: in vivo, human; conditions: healthy participants, higher doses of Examples B14 and B15 (80-640 mg)
Experimental: as §1
This study was designed as a randomized, double-blind, placebo-controlled study in 48 healthy participants conducted in 2 parts. Part 1 has completed clinical conduct, and Part 2 is ongoing. In Part 1, 24 participants were randomized 1:1:1 to receive Compound 5 80 mg QD, Compound 5 160 mg QD, or placebo QD. A safety review committee reviewed the safety and PK data from Part 1 and recommended doses for Part 2. […] BALF samples were assessed for TGF-β receptor kinase activity (pSMAD2/SMAD2) in pelleted cells (primarily alveolar macrophages) and additional cell material was used to measure TGF-β signaling pathway-related gene expression levels. […] Safety was monitored via open-ended AE inquiry and clinical chemistry, hematology, vital sign, and 12-lead ECG parameters.

half-life ([1]; single dose 120 mg): 37 h
half-life ([1]; single dose 160 mg): 36.5 h
half-life ([1]; single dose 240 mg): 46 h
half-life ([1]; single dose 320 mg): 40.7 h
half-life ([1]; single dose 480 mg): 43.7 h
half-life ([1]; single dose 640 mg): 42.3 h
Cmax ([1]; single dose 120 mg): 2710 ng/mL
AUC(0-t) ([1]; single dose 120 mg): 27400 ng·h/mL
Tmax ([1]; single dose 120 mg): 4 h
Cmax ([1]; single dose 160 mg): 2480 ng/mL
AUC(0-t) ([1]; single dose 160 mg): 28500 ng·h/mL
Tmax ([1]; single dose 160 mg): 1.95 h
Cmax ([1]; single dose 240 mg): 4390 ng/mL
AUC(0-t) ([1]; single dose 240 mg): 48000 ng·h/mL
Tmax ([1]; single dose 240 mg): 3.5 h
Cmax ([1]; single dose 320 mg): 6390 ng/mL
AUC(0-t) ([1]; single dose 320 mg): 71200 ng·h/mL
Tmax ([1]; single dose 320 mg): 4 h
Cmax ([1]; single dose 480 mg): 5080 ng/mL
AUC(0-t) ([1]; single dose 480 mg): 57300 ng·h/mL
Tmax ([1]; single dose 480 mg): 3 h
Cmax ([1]; single dose 640 mg): 6900 ng/mL
AUC(0-t) ([1]; single dose 640 mg): 88300 ng·h/mL
Tmax ([1]; single dose 640 mg): 3.5 h
dose proportionality of total (AUC0-24) and peak (Cmax) exposure ([1]; single oral doses of 120 to 320 mg): increased in a dose-proportional manner
Structure (SMILES): COCCN(CCCCc1ccc2c(n1)NCCC2)CC[C@H](Nc1ncnc2ccccc12)C(=O)O [Compound 5, (S)-4-((2-methoxyethyl) (4-(5,6,7,8-tetrahydro-1,8-naphthyridin-2-yl)butyl)amino)-2-(quinazolin-4-ylamino) butanoic acid]
dose proportionality of total and peak exposures ([1]; single doses over the range of 120 to 640 mg): slightly less than dose-proportional manner
pSMAD3 levels in lung and BALF cells vs. plasma drug exposure (bleomycin-treated mice; 14 days after bleomycin, […] dose PO BID 1.5 days, FIGS. 4J, 4K): close inverse relationship
accumulated new collagen (percentage of lung collagen containing 2H-labeled hydroxyproline) (bleomycin-treated mice; bleomycin mice, 1× and 5× (p<0.01 vs vehicle), FIG. 4D): dose-dependent reduction
total pulmonary collagen, as measured by μg of hydroxyproline (bleomycin-treated mice; bleomycin mice, 1×, […], 5× (p<0.05 vs vehicle), FIG. 4E): reduction in total pulmonary collagen
percent total collagen area in second harmonic generation lung images (bleomycin-treated mice; bleomycin mice, 1×, […], 5×, FIG. 4I): substantial, statistically significant dose-dependent reduction
pSMAD3 levels in the lung (SMAD3 phosphorylation) (bleomycin-treated mice; bleomycin mice, oral gavage BID 14 days, 1×, […], 5×, FIG. 4C): approximately 50 % of the untreated levels
lung slice Col1a1 expression (lung Col1a1 expression): substantial, statistically significant (p<0.01 vs vehicle) decrease
adverse effects [2]: no significant adverse effects
